From ChEMBL document CHEMBL5325414, “Novel neuroprotective pyromeconic acid derivatives with concurrent anti-Aβ deposition, anti-inflammatory, and anti-oxidation properties for treatment of Alzheimer's disease” (Eur J Med Chem, 2023)
pIC50: −log10 of the molar value. Active and inactive are the calls of the source. The rule behind the calls is not given here.

Key:
[1] = Drug concentration in hippocampus of Sprague-Dawley rat at 15 mg/kg, IG measured after 0.25 hrs; format: ADME, organism-based; details: po, read-out: Drug uptake
[2] = Ratio of drug concentration in hippocampus to plasma of Sprague-Dawley rat at 15 mg/kg, IG measured after 2 hrs; format: ADME, organism-based; details: po
BV-2 [3] = test: Antiinflammatory activity in LPS induced mouse BV-2 cells decrease in release of […] at 5 uM by […] (reference value: 100%); format: functional
[4] = Drug concentration in hippocampus of Sprague-Dawley rat at 15 mg/kg, IG measured after 2 hrs; format: ADME, organism-based; details: po, read-out: Drug uptake
BV-2 [5] = test: Effect of amyloid beta (1 to 42) indued apoptosis in mouse BV-2 cells assessed as early apoptotic cells at 2.5 uM measured by propidium iodide staining based flow cytometric analysis (reference value: 26.12%); format: functional
Mus musculus [6] = test: Anti alzheimer activity in scopolamine induced anxiety in ICR mouse assessed as improved exploratory activity pretreated with scopolamine at 3 mg/kg, ip for 31 days followed by compound addition at 20 mg/kg, po at day 7 to 31; format: functional, organism-based; details: time 25.0 day
Mus musculus [7] = test: In vivo antiinflammatory activity in scopolamine induced cognitive impaired ICR mouse assessed as decrease in Iba1 levels in hippocampus by immunoblot analysis; format: functional, organism-based
[8] = target: T1, Amyloid-beta precursor protein (Homo sapiens, UniProt P05067); test: Inhibition of amyloid beta (1 to 42) (unknown origin) self aggregation assessed as disaggregation
Mus musculus [9] = test: Anti alzheimer activity in scopolamine induced anxiety in ICR mouse assessed as increase in discrimination ratio pretreated with scopolamine at 3 mg/kg, ip for 31 days followed by compound addition at 20 mg/kg, po at day 7 to 31 by novel object recognition test; format: functional, organism-based; details: time 25.0 day
BV-2 [10] = test: Neuroprotective activity against amyloid beta (1 to 42) induced neurotoxicity in mouse BV-2 cells assessed as survival of cells at 2.5 uM treated for 24 hrs relative to control; format: functional
[11] = Metal chelating activity assessed as compound-Ca2+ complex formation by optical shift at 50 uM in PBS buffer 7.4 by UV-vis spectrometric analysis
Mus musculus [12] = test: Neuroprotective effect in scopolamine induced cognitively impaired mouse assessed as decrease in neuronal damage in CA1 region by measuring increase in neuronal nuclear antigen level at hippocampus at 20 mg/kg by immunoblot analysis; format: functional, organism-based
BV-2 [13] = test: Effect of amyloid beta (1 to 42) indued apoptosis in mouse BV-2 cells assessed as early apoptotic cells at 5 uM measured by propidium iodide staining based flow cytometric analysis (reference value: 26.12%); format: functional
[14] = target: T1, Amyloid-beta precursor protein; test: Inhibition of Fe3+ induced of amyloid beta (1 to 42) aggregation (unknown origin)
BV-2 [15] = test: Antioxidant activity in H2O2 treated mouse BV-2 cells assessed as nuclear translocation of NRF2 at 5 to 20 uM by immunofluorescence analysis; format: functional, cell-based; details: dose 5-20 µM
[16] = Drug concentration in plasma of Sprague-Dawley rat at 15 mg/kg, IG measured after 4 hrs; format: ADME, organism-based; details: po
BV-2 [17] = test: Antioxidant activity in H2O2 treated mouse BV-2 cells assessed as reversal of HO-1 level at 5 to 20 uM by immunofluorescence analysis; format: functional, cell-based; details: dose 5-20 µM
[18] = target: T1, Amyloid-beta precursor protein; test: Inhibition of amyloid beta (1 to 42) (unknown origin) self aggregation assessed as low density in amyloid fibrils compound addition at 50 uM after fibrilation for 24 hrs
[19] = Cmax in Sprague-Dawley rat at 15 mg/kg, IG; format: ADME, organism-based; set-up: dose 15 mg/kg, route ig; details: in vivo, po
[20] = Metal chelating activity assessed as compound-Mn2+ complex formation by optical shift at 50 uM in PBS buffer 7.4 by UV-vis spectrometric analysis
[21] = target: T1, Amyloid-beta precursor protein; test: Inhibition of amyloid beta (1 to 42) (unknown origin) self aggregation assessed as decrease in number of amyloid beta fibrils at 50 uM for 24 hrs
Mus musculus [22] = test: Antioxidant activity in scopolamine induced cognitive impaired mouse assessed as reversal of HO-1 level in cortex at 20 mg/kg; format: functional, organism-based
[23] = Metal chelating activity assessed as compound-Fe2+ complex formation by measuring shift at 2:1 at 50 uM in PBS buffer 7.4 by UV-vis spectrometric analysis
Mus musculus [24] = test: Neuroprotective effect in scopolamine induced cognitively impaired mouse assessed as reversal of amyloid beta plaque deposition at 20 mg/kg by immunohistochemistry staining analysis; format: functional, organism-based
Mus musculus [25] = test: Antioxidant activity in scopolamine induced cognitive impaired mouse assessed as decrease of MDA level in cortex at 20 mg/kg; format: functional, organism-based
[26] = Acute toxicity in mouse assessed as change in behaviour at 2000 mg/kg, IG administered as single dose measured after 14 days; format: organism-based; details: in vivo, po, 336 h, time 14 day
Mus musculus [27] = test: In vivo effect on NRF2 expression in scopolamine induced cognitive impaired mouse assessed as reversal of NRF2 signalling in hippocampus treated at 20 mg/kg by immunofluorescence analysis; format: functional, organism-based
[28] = Acute toxicity in mouse assessed as histopathological change in brain at 2000 mg/kg, IG administered as single dose measured after 14 days measured by H and E staining analysis; format: organism-based; details: in vivo, po, 336 h, time 14 day
Mus musculus [29] = test: In vivo antiinflammatory activity in scopolamine induced cognitive impaired ICR mouse assessed as decrease in IL-6 levels in cortex; format: functional, organism-based
[30] = target: T1, Amyloid-beta precursor protein; test: Inhibition of amyloid beta (1 to 42) (unknown origin) self aggregation assessed as disaggregation relative to control; set-up: concentration or dose not given beside the values; details: concentration not given here
[31] = Metal chelating activity assessed as compound-K+ complex formation by optical shift at 50 uM in PBS buffer 7.4 by UV-vis spectrometric analysis
[32] = MRT(0 to t) in Sprague-Dawley rat at 15 mg/kg, IG; format: ADME, organism-based; details: in vivo, po
Mus musculus [33] = test: In vivo antiinflammatory activity in scopolamine induced cognitive impaired ICR mouse assessed as decrease in Iba1 levels in cortex; format: functional, organism-based
[34] = Drug concentration in hippocampus of Sprague-Dawley rat at 15 mg/kg, IG measured after 0.083 hrs; format: ADME, organism-based; details: po, read-out: Drug uptake
Mus musculus [35] = test: In vivo effect on HO-1 expression in scopolamine induced cognitive impaired mouse assessed as reversal of NRF2 signalling in hippocampus treated at 20 mg/kg by immunoblot analysis; format: functional, organism-based
BV-2 [36] = test: Effect on H2O2 induced reactive oxygen species in mouse BV-2 cells assessed as reduction of ROS generation at 10 uM by fluorescence microscopic analysis relative to control; format: functional; set-up: scale not given: the % may be the effect or the level left
Mus musculus [37] = test: Anti alzheimer activity in scopolamine induced anxiety in ICR mouse assessed as increase in crossing time by measuring escape latency pretreated with scopolamine at 3 mg/kg, ip for 31 days followed by compound addition at 20 mg/kg, po at day 7 to 31 by morris water maze test; format: functional, organism-based; details: time 25.0 day
[38] = target: Amyloid-beta precursor protein (Mus musculus) (UniProt P12023); test: Inhibition of amyloid beta (1 to 42) in mouse BV-2 cells by measuring scavenging effect at 2.5 to 10 uM by ThT fluorescence based immunoblot analysis; format: cell-based; details: dose 2.5-10 µM
[39] = Drug concentration in plasma of Sprague-Dawley rat at 15 mg/kg, IG measured after 0.167 hrs; format: ADME, organism-based; details: po
[40] = Acute toxicity in mouse assessed as histopathological change in liver at 2000 mg/kg, IG administered as single dose measured after 14 days measured by H and E staining analysis; format: organism-based; details: in vivo, po, 336 h, time 14 day

T1 sequence (P05067 whole entry): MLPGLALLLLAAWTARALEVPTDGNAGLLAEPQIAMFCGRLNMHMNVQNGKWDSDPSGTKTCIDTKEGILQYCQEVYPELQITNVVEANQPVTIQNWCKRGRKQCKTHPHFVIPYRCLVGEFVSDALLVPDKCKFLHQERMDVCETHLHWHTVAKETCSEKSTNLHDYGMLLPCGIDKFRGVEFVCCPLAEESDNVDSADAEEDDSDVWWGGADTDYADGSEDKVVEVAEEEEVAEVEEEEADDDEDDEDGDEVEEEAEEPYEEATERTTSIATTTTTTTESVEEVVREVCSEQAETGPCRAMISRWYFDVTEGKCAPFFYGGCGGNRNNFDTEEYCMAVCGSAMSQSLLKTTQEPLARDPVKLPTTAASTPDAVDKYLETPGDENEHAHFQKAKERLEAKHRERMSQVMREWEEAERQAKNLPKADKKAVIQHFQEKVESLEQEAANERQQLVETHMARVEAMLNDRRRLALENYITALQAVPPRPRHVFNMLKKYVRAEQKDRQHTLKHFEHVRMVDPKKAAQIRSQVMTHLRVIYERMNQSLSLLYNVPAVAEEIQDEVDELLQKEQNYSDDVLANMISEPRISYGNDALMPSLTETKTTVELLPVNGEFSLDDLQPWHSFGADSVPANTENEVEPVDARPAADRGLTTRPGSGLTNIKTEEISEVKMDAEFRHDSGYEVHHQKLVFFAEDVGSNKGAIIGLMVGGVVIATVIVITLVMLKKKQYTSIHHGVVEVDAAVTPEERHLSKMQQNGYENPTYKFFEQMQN
Chain of Amyloid-beta precursor protein (Mus musculus) (P12023 whole entry): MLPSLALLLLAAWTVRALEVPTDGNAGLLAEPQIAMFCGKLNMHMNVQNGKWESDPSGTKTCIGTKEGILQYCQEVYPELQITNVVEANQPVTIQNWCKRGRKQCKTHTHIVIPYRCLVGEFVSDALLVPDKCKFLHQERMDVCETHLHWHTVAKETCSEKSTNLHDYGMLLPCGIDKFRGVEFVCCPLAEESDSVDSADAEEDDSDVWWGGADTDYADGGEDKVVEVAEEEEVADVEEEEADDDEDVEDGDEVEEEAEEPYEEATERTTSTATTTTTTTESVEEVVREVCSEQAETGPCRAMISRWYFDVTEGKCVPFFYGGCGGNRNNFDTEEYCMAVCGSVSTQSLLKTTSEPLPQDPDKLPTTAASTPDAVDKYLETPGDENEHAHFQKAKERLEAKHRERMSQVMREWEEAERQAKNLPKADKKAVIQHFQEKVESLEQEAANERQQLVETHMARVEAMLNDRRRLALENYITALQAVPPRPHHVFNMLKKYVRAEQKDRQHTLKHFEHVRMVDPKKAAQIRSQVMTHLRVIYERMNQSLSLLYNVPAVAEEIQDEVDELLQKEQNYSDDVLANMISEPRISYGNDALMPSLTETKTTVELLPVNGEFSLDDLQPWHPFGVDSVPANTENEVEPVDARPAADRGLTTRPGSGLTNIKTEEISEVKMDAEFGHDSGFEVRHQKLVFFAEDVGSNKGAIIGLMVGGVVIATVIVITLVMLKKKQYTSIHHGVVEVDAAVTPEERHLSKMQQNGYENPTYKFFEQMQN

O=c1ccoc(/C=C/c2ccc(O)c(O)c2)c1O
concentration at 0.25 h [1]: 2.57 ng/mL | Kp at 2 h [2]: 7.12 | Nitric oxide release (% of LPS control) (BV-2 [3]): 86.32% | concentration at 2 h [4]: 6.37 ng/mL | Activity (BV-2 [5]): 13.4% | Activity (Mus musculus [6]): Active | Activity (Mus musculus [7]): Active | pIC50 [8]: 5.16 | Activity (Mus musculus [9]): Active | Activity (BV-2 [10]): 56.3% | Activity [11]: inactive | Activity (Mus musculus [12]): Active | Activity (BV-2 [13]): 8.32% | pIC50 [14]: 5.01 | Activity (BV-2 [15]): Active | concentration at 4 h [16]: 0.95 ng/mL | Activity (BV-2 [17]): Active | Activity [18]: Active | Cmax [19]: 14.4 ng/mL | Activity [20]: inactive | inhibition [21]: Active | Activity (Mus musculus [22]): Active | Activity [23]: Active | Activity (Mus musculus [24]): Active | Activity (Mus musculus [25]): Active | Activity [26]: Non-Toxic | Activity (Mus musculus [27]): Active | Activity [28]: Non-Toxic | Activity (Mus musculus [29]): Active | inhibition [30]: 90.4% | Activity [31]: inactive | MRT last [32]: 6.36 h | Activity (Mus musculus [33]): Active | concentration at 0.083 h [34]: 1.14 ng/mL | Activity (Mus musculus [35]): Active | Activity (BV-2 [36]): 34.85% | Activity (Mus musculus [37]): Active | inhibition [38]: Active | concentration at 0.167 h [39]: 22.2 ng/mL | Activity [40]: Non-Toxic
